Experimental data: patent publication US4094966A, “Iodobenzene derivatives and X-ray contrast media containing the same” (priority 1974, dated 1978)

Columns and labels:
femoral artery = assay: Effect on the femoral rate of flow (peripheral vasodilatation); assay type: in vivo, mongrels
Protocol: This test was carried out in Nembutal-anesthetized male or female 7-12 mongrels.
Nembutal was used at a dosage of 30 mg/kg, with Vetranquil pre-medication, (overall intravenous injection of 2.5 mg), respiration was spontaneous.
Rate of flow variations were recorded at the level of the right or left fermoral artery, by means of a Statham electromagnetic sensor.
The injections were made in a collateral of the fermoral artery, downstream of the sensor, by means of a catheter mounted by the retrograde route, so as not to perturb the blood flow.
The injections were made under a constant volume of 1.5 ml administered within 3-5 seconds.
The same volume of an iostonic sodium chloride solution was also injected.

[1] = Biliary clearance test in cats; assay type: in vivo; set-up: scale not given here
Protocol: This test was conducted in male or female adult cats weighing 3-4 kg.
The test material was injected intravenously, at a dosage of 0.10 g/kg iodine at the level of the internal saphenous vein. Clearance of the material was monitored by X-ray control.
X-ray pictures visualizing the gall bladder and the bladder were taken at the following times: 30 minutes, 1 hour, 2 hours, 3 hours, 4 hours, 5 hours, 6 hours.

mice = assay: Acute toxicity determination, intravenous toxicity in mice; assay type: in vivo, mice (Swiss origin, IOPS mice of OFI strain); settings: 24 hours
Protocol: Intravenous toxicity determination was effected in Swiss origin, IOPS mice of OFI strain.
Each dosage level was injected to a lot of 10 mice comprising 5 male and 5 female mice.
Injections were made manually, in the caudal vein, at a rate of 2 ml/minute.
Death rate during the 24 hours after injection was recorded.

[2] = Osmolality determination (FISKE osmometer); assay type: physicochemical; settings: solutions containing 28% iodine; methylglucamine salts; extrapolation from successive dilutions
Protocol: Osmolality is determined by extrapolation of the values obtained on successive dilutions of solutions containing 28% or 38% iodine.
Osmolality readings are made with a FISKE Model 230/D/330 D osmometer. This apparatus indicates this measurement as milliosmoles per kg of solution. Its operation is based on the principles of cryoscopy. The determinations were made with solutions containing 28% iodine.

[3] = 1.5 ml into collateral of femoral artery, 28% I, Mgl salt
[4] = i.v., 0.10 g I/kg, 28% I, Mgl salt

Structure (SMILES) | Peripheral vasodilatation, femoral rate of flow (femoral artery; [3]) | Biliary clearance in cat, i.v. [1, 4] | Acute toxicity in mice, i.v. (mice; 28% I, Mgl salt) [grams I/kg] | Osmolality [2] [mosm/kg] | also measured
CNC(=O)c1c(I)c(NC(=O)CCCNC(=O)c2c(I)c(C(=O)NCCO)c(I)c(N(C)C(C)=O)c2I)c(I)c(C(=O)O)c1I [Compound 7, 2,4,6-triiodo-3-N-methylcarbamyl-5-(2,4,6-triiodo-3-N-hydroxyethylcarbamyl-5-N-methylacetamido-benzoyl)γ-aminobutyrylamino-benzoic acid] | ++ | 0 | 5 | 525 | –
CNC(=O)c1c(I)c(C(=O)NCCCCCC(=O)Nc2c(I)cc(I)c(C(=O)O)c2I)c(I)c(N(C)C(C)=O)c1I [Compound 10, 2,4,6-triiodo-5-(2,4,6-triiodo-3-N-methylcarbamyl-5-N-methylacetamido-benzoyl)-ε-aminocaproylamino-benzoic acid] | ++++ | ++++ | 1.5 | 420 | –
CNC(=O)c1c(I)c(NC(=O)CCCNC(=O)c2c(I)cc(I)c(N(C)C(C)=O)c2I)c(I)c(C(=O)O)c1I [Compound 11, 2,4,6-triiodo-3-N-methylcarbamyl-5-(2,4,6-triiodo-3-N-methylacetamido-benzoyl)-γ-aminobutyrylaminobenzoic acid] | ++++ | +++ | 2.3 | 390 | –
CNC(=O)c1c(I)c(NC(=O)CNC(=O)c2c(I)c(NC(=O)CNC(=O)c3c(I)c(NC(C)=O)c(I)c(C(=O)NC)c3I)c(I)c(N(C)C(C)=O)c2I)c(I)c(C(=O)O)c1I [Compound 16, 2,4,6-triiodo-3-N-methylcarbamyl-5-[2,4,6-triiodo-3-N-methylacetamido-5-(2,4,6-triiodo-3-N-methylcarbamyl-5-acetamido-benzoyl)glycylamino-benzoyl]-glycylamino-benzoic acid] | – | – | – | 250 | Peripheral vasodilatation, femoral rate of flow (femoral artery; in vivo): +; Biliary clearance in cat, i.v. ([1]; in vivo, iv): 0
CNC(=O)c1c(I)c(NC(=O)CNC(=O)c2c(I)c(NC(=O)CNC(=O)c3c(I)c(C(=O)NC)c(I)c(N(C)C(C)=O)c3I)c(I)c(N(C)C(C)=O)c2I)c(I)c(C(=O)O)c1I [Compound 17, 2,4,6-triiodo-3-N-methylcarbamyl-5-[2,4,6-triiodo-3-N-methylacetamido-5-(2,4,6-triiodo-3-N-methylcarbamyl-5-N-methylacetamido-benzoyl)glycyl-aminobenzoyl]-glycyl-amino-benzoic acid] | – | – | – | 200 | Peripheral vasodilatation, femoral rate of flow (femoral artery; in vivo): ++; Biliary clearance in cat, i.v. ([1]; in vivo, iv): 0
CNC(=O)c1c(I)c(NC(=O)CNC(=O)c2c(I)cc(I)c(N(C)C(C)=O)c2I)c(I)c(C(=O)O)c1I [Compound 18, 2,4,6-triiodo-3-N-methylcarbamyl-5-(2,4,6-triiodo-3-N-methylacetamido-benzoyl-glycyl)-amino-benzoic acid] | ++++ | ++++ | – | 390 | –
CNC(=O)c1c(I)c(C(=O)NCC(=O)Nc2c(I)cc(I)c(C(=O)O)c2I)c(I)c(N(C)C(C)=O)c1I [Compound 19, 2,4,6-triiodo-5-(2,4,6-triiodo-3-N-methylcarbamyl-5-N-methylacetamido-benzoyl) glycylamino-benzoic acid] | ++++ | ++++ | 4 | 500 | –
CC(=O)Nc1c(I)c(NC(=O)CNC(=O)c2c(I)c(NC(C)=O)c(I)c(N(C)C(C)=O)c2I)c(I)c(C(=O)O)c1I [Compound 20, 2,4,6-triiodo-3-acetamido-5-(2,4,6-triiodo-3-N-methylacetamido-5-acetamido-benzoyl)-glycylaino-benzoic acid] | – | – | – | 755 | Peripheral vasodilatation, femoral rate of flow (femoral artery; 1.5 ml into collateral of femoral artery, 28 and 38% I, Na salt): +; Acute toxicity in mice, i.v. (mice; 28 and 38% I, Na salt): 7.5 grams I/kg
CNC(=O)c1c(I)c(NC(C)=O)c(I)c(C(=O)NCC(=O)N(C)c2c(I)cc(I)c(C(=O)O)c2I)c1I [Compound 21, 2,4,6-triiodo-3-(2,4,6-triiodo-3-N-methylcarbamyl-5-acetamido-benzoyl)glycyl-N-methylamino-benzoic acid] | – | – | – | 580 | Peripheral vasodilatation, femoral rate of flow (femoral artery; 1.5 ml into collateral of femoral artery, 20% I, Mgl salt): ++++; Biliary clearance in cat, i.v. ([1]; i.v., 0.10 g I/kg, 20% I, Mgl salt): +++; Acute toxicity in mice, i.v. (mice; 20% I, Mgl salt): 4-5 grams I/kg
CNC(=O)c1c(I)c(NC(=O)CNC(=O)c2c(I)c(NC(=O)C(O)C(O)C(O)C(O)CO)c(I)c(C(=O)NC)c2I)c(I)c(C(=O)O)c1I (stereo not drawn) [Compound 35, 2,4,6-triiodo-3-N-methylcarbamyl-5-(2,4,6-triiodo-3-N-methylcarbamyl-5-gluconylamino-benzoyl)glycylamino-benzoic acid] | + | 0 | 8 | – | –
CNC(=O)c1c(I)c(NC(=O)C(O)C(O)C(O)C(O)CO)c(I)c(C(=O)NCC(=O)Nc2c(I)c(C(=O)O)c(I)c(C(=O)NCCO)c2I)c1I (stereo not drawn) [Compound 36, 2,4,6-triiodo-3-hydroxyethylcarbamyl-5-(2,4,6-triiodo-3-N-methylcarbamyl-5-glyconylamino-benzoyl) glycylamino-benzoic acid] | ++ | 0 | 8 | – | –
CNC(=O)c1c(I)c(NC(C)=O)c(I)c(C(=O)NCC(=O)N(C)c2c(I)c(C(=O)O)c(I)c(C(=O)NCCO)c2I)c1I [Compound 38, 2,4,6-triiodo-3-N-hydroxyethylcarbamyl-5-(2,4,6-triiodo-3-N-methylcarbamyl-5-acetamido-benzoyl)-glycyl-N-methylamino-benzoic acid] | – | – | – | 635 | –
CC(=O)Nc1c(I)c(NC(C)=O)c(I)c(C(=O)O)c1I [d, 2,4,6-Triiodo-3,5-bis-(acetamido)-benzoic acid, reference compound] | – | – | – | – | Peripheral vasodilatation, femoral rate of flow (femoral artery; in vivo): +++; Biliary clearance in cat, i.v. ([1]; i.v., 0.10 g I/kg, 38% I, mixed Mgl and Na salt): 0; Acute toxicity in mice, i.v. (mice; 38% I, mixed Mgl and Na salt): 5.7 grams I/kg
O=C(CCCCC(=O)Nc1c(I)cc(I)c(C(=O)O)c1I)Nc1c(I)cc(I)c(C(=O)O)c1I [e, 3,3'-Adipoyldiimino-bis(2,4,6-triiodobenzoic) acid, reference compound] | ++++ | – | 2 | – | Biliary clearance in cat, i.v. ([1]; in vivo, iv): ++++
